{"source": "patent US20230181510A1", "about": "“COMPOSITION AND METHODS OF RETINOIC ACID” (priority 2020, published 2023)", "origin": "cited, not measured here", "key": {"[1]": {"tested_on": "human skin", "conditions": "topical stabilized treatment, human skin in vitro and in vivo"}, "[2]": {"tested_on": "collagen", "conditions": "topical treatment"}}}
{"substance": "retinoic acid", "values": [{"measurement": "Expression of HAS genes and HA production", "setting": "[1]", "value": "induce the expression of hyaluronic acid (HA) synthase (HAS) genes and HA production"}, {"measurement": "Collagen regeneration", "setting": "[2]", "value": "stimulates collagen regeneration"}]}
